The test system of one data set is U937 cells. Briefly: Effects of colchicine on foam cell formation (Bodipy). Format: cell-based. The conditions noted are these: tested 0, 2, 5, 10, 20, 40 nM; Ox-LDL 100 ug/mL, 3 days. As to the method: Experimental approach: U937 cells with a cell density of 5000 cell/well were seeded in a 48 well plate, then the colchicine with a selected concentration range from 0 to 40 nM, that is 0, 2 nM, 5 nM, 10 nM, 20 nM, and 40 nM, were added into each well-containing monocytes and RAMPI monocyte culture medium. Then each well were added with M-CSF (100 ng/mL), GM-CSF (25 ng/mL) and INF-γ (100 ng/mL) for macrophage formation. After 7 days of culture, then Ox-LDL (100 ug/mL) was added to each well and cultured for 3 days. After 3 days of culture, the effect of […] on foam cell formation was assessed by using Bodipy. It was shown that the suppression of foam cells was observed when the colchicine concentration is above 2 nM, that is, at the concentrations of 5 nM, 10 nM, 20 nM, and 40 nM (FIG. 18B)

Data set [1] deals with diseased hAECs (TNF-α stimulated). Briefly: Effects of colchicine on diseased EC function (NO production, DAF-FM). Format: cell-based, human. The conditions noted are these: tested 10, 20, 40, 80, 160 nM; three days; versus diseased hAECs without colchicine. As to the method:
Experiment approach: hAECs were seeded in 48-well plate at a cell density of 5000 per well and allowed to attach and grow for 24 h to create a stable confluent monolayer of hAECs (hereafter the “endothelium”). Then, the diseased hAECs (“diseased endothelium”) were obtained by stimulating the hAECs with TNF-α (20 ng/mL) for 18 hours. After that, the colchicine at concentrations of 10 nM, 20 nM, 40 nM, 80 nM, and 160 nM was added to the hAECs after TNF-α stimulation, and then the hAECs were cultured for another three days. Then, the diseased hAEC function was assessed by measuring NO production by hAECs using DAF-FM (4-amino-5-methylamino-2′,7′-difluororescein). DAF-FM is essentially nonfluorescent until they react with NO to form a fluorescent benzotriazole. DAF-FM is cell-permeant and passively diffuses across cellular membranes. Once inside cells, it is de-acetylated by intracellular esterases. The fluorescence quantum yield of DAF-FM is —0.005, but increases about 160-fold, to ˜0.81, after reacting with nitric oxide. With excitation/emission maxima of 495/515 nm, DAF-FM can be detected by any instrument that can detect fluorescein, including fluorescent microplate readers. […] After the de-esterification, the fluorescence intensity of DAF-FM in hAECs was measured at (excitation/emission) 495/515 nm.

Data set [2] concerns patients with myocardial infarction or chronic coronary disease. The conditions noted are these: cited from earlier work.
The next data set has as its system HAECs. Briefly: hAEC proliferation, CyQUANT Cell Proliferation Assay. Format: cell-based, human. The conditions noted are these: sirolimus 0-50 nM, with or without 10 -9 M NO, three days. As for the experimental part: Preparation of NO. The peptide amphiphiles (PA-C16-CA and PA-C16-K5) were synthesized, respectively. These two distinct PAs were mixed in a 9:1 ratio (YIGSR:KKKKK) to form PA-C16-YK5, which was subsequently reacted with NO gas to form PA-YK-NO. The released NO was collected, and NO concentration was measured using Greiss Assay.
Treatment on hAEC. hAECs were seeded in a 48-well plate at a cell density of 2000 per well and allowed to attach for 24 h (hereafter the “endothelium”). For the sirolimus-only group, the sirolimus at concentrations of 0, 0.25, 0.1, 0.5, 1, and 50 nM were added to the hAECs, and then the hAECs were cultured for another three days. Similarly, for the dual-treatment group, sirolimus at similar concentrations was combined with 10 -9 M NO and added to hAEC. Then, the proliferation of hAEC under different conditions was assessed by CyQUANT Cell Proliferation Assay after three days. Briefly, the culture medium in each well was removed, and the cells in the tissue culture plate were frozen overnight at −80° C.; then, the dye in the lysis buffer was added after completely thawing at room temperature. After 30 min incubation, the fluorescent signal was measured using a microplate reader at 485/528 nm.

The conditions of data set [3]: cited from earlier work.

For `COc1cc2c(c(OC)c1OC)-c1ccc(OC)c(=O)cc1[C@@H](NC(C)=O)CC2` [colchicine, N[5′,6,7,9-tetrahydro-1,2,3,10-tetratmethoxy 9-oxobenzo[a]heptalen-7-yl], (S)-acetamide], the “colchicine concentration at which suppression of foam cells was observed” value with U937 cells is given as “above 2 nM”. Besides, in data set [1], the “colchicine concentration at which NO production of diseased hAECs increased” value is “above 20 nM”. In data set [2] (0.5 mg once daily versus placebo, myocardial infarction within 30 days), the “composite endpoint of cardiovascular death, resuscitated cardiac arrest, myocardial infarction, stroke, or urgent hospitalization for angina (COLCOT)” value is recorded as “lower among those who received 0.5 mg of colchicine once daily than among those who received placebo”. The “risk of acute cardiovascular events (LoDoCo)” value in data set [2] (0.5 mg once daily, chronic coronary disease, open-label) is given as “lower among those who received 0.5 mg of colchicine once daily than those who did not receive colchicine”. Moreover, the “primary composite endpoint of cardiovascular mortality, myocardial infarction, ischemic stroke, and urgent revascularization (meta-analysis)” value in data set [2] (four major randomized controlled trials) is given as “significant reduction”.
Take `CO[C@H]1C[C@@H]2CC[C@@H](C)[C@@](O)(O2)C(=O)C(=O)N2CCCC[C@H]2C(=O)O[C@H]([C@H](C)C[C@@H]2CC[C@@H](O)[C@H](OC)C2)CC(=O)[C@H](C)/C=C(\C)[C@@H](O)[C@@H](OC)C(=O)[C@H](C)C[C@H](C)/C=C/C=C/C=C/1C` [Sirolimus]: in the data set on HAECs, the hAEC proliferation result is listed as “reduced the proliferation of hAECs dose-dependently”. For the same molecule, in data set [3], the solubility in water entry is given as “virtually insoluble in water”.

Values taken from patent US20240199698A1, “PEPTIDE AMPHIPHILE COMPOSITIONS AND METHODS OF USE THEREOF” (UAB RESEARCH FOUNDATION, priority 2022, published 2024).
